Laboratory results: the supplement of paper PMC11208160

Assay: recombinant barcode read abundance after kanamycin selection (control-corrected) (log10(CPM+1)); higher = more efficient recombination; sequences stand for … in AGTGCAGAGAAAATCGGCCAGTTTTCTCTGCCTGCAGTCCGCATGCCGT…ATTTATGCAGCGGACTGCCTTTCTCCCAAAGTGATAAACCGGACAGTATCATGGACCGGTTTTCCCGGTAATCCGTATTTGCAAGGTTGGTTTCACT; site = the 11-nt target
How it was run: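 Targets and IS621 bridge RNA target-binding loops were paired in oligos, each with a promoter, a barcode and the J23119-driven first 104 bridge RNA bases. A vector carrying the remaining 73 bp and a T7-inducible recombinase received these by Gibson cloning, and the pool was co-electroporated into E. coli with a donor plasmid. Duplicate plates contained chloramphenicol/ampicillin LB agar (control) or chloramphenicol/ampicillin/kanamycin with 0.1 mM IPTG. Recombination efficiency comes from averaged, control-corrected counts per million of recombinant-junction barcodes, reported as log10(CPM+1).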

Row | Sequence | recombinant barcode read abundance (log10)
1 | GAGTCCTCATGGGTTCTAACCTGTTGCCTTG [GAGTCCTCTAG_LTGcore_CA_RTGcore_CA] (site GAGTCCTCTAG) (LTG core: CA, RTG core: CA) | 0.185
2 | GAGTCCTCCTGGGTTCTAACCTGTTGCCTAG [GAGTCCTCTAG_LTGcore_CC_RTGcore_CT] (site GAGTCCTCTAG) (LTG core: CC, RTG core: CT) | 0.191
3 | GAGTCCTCGTGGGTTCTAACCTGTTGCCTCG [GAGTCCTCTAG_LTGcore_CG_RTGcore_CG] (site GAGTCCTCTAG) (LTG core: CG, RTG core: CG) | 0.0506
4 | GAGTCCTCTTGGGTTCTAACCTGTTGCCTAG [GAGTCCTCTAG_LTGcore_CT_RTGcore_CT] (site GAGTCCTCTAG) (LTG core: CT, RTG core: CT) | 2.17
5 | GAGTCCTCTTGGGTTCTAACCTGTTGCCTGA [GAGTCCTCTAG_LTGcore_CT_RTGcore_TC] (site GAGTCCTCTAG) (LTG core: CT, RTG core: TC) | 1.3
6 | GAGTCCTCTTGGGTTCTAACCTGTTGCCTTA [GAGTCCTCTAG_LTGcore_CT_RTGcore_TA] (site GAGTCCTCTAG) (LTG core: CT, RTG core: TA) | 1.48
7 | GAGTCCTCTTGGGTTCTAACCTGTTGCCTTC [GAGTCCTCTAG_LTGcore_CT_RTGcore_GA] (site GAGTCCTCTAG) (LTG core: CT, RTG core: GA) | 1.24
8 | GAGTCCTGCTGGGTTCTAACCTGTTGCCTGC [GAGTCCTCTAG_LTGcore_GC_RTGcore_GC] (site GAGTCCTCTAG) (LTG core: GC, RTG core: GC) | 0.333
9 | GAGTCCTGTTGGGTTCTAACCTGTTGCCTAC [GAGTCCTCTAG_LTGcore_GT_RTGcore_GT] (site GAGTCCTCTAG) (LTG core: GT, RTG core: GT) | 0.0554
10 | GAGTCCTTATGGGTTCTAACCTGTTGCCTAG [GAGTCCTCTAG_LTGcore_TA_RTGcore_CT] (site GAGTCCTCTAG) (LTG core: TA, RTG core: CT) | 0.414
11 | GCGCGACACTGGGTTCTAACCTGTTGCTTGT [GCGCGACCTAA_LTGcore_AC_RTGcore_AC] (site GCGCGACCTAA) (LTG core: AC, RTG core: AC) | 0.147
12 | GCGCGACCATGGGTTCTAACCTGTTGCTTAG [GCGCGACCTAA_LTGcore_CA_RTGcore_CT] (site GCGCGACCTAA) (LTG core: CA, RTG core: CT) | 0.422
13 | GCGCGACCCTGGGTTCTAACCTGTTGCTTAG [GCGCGACCTAA_LTGcore_CC_RTGcore_CT] (site GCGCGACCTAA) (LTG core: CC, RTG core: CT) | 0.907
14 | GCGCGACCTTGGGTTCTAACCTGTTGCTTGC [GCGCGACCTAA_LTGcore_CT_RTGcore_GC] (site GCGCGACCTAA) (LTG core: CT, RTG core: GC) | 0.0896
15 | GCGCGACCTTGGGTTCTAACCTGTTGCTTGT [GCGCGACCTAA_LTGcore_CT_RTGcore_AC] (site GCGCGACCTAA) (LTG core: CT, RTG core: AC) | 0.0798
16 | GCGCGACCTTGGGTTCTAACCTGTTGCTTTC [GCGCGACCTAA_LTGcore_CT_RTGcore_GA] (site GCGCGACCTAA) (LTG core: CT, RTG core: GA) | 0.07
17 | GCGCGACGATGGGTTCTAACCTGTTGCTTAG [GCGCGACCTAA_LTGcore_GA_RTGcore_CT] (site GCGCGACCTAA) (LTG core: GA, RTG core: CT) | 0.0201
18 | GCGCGACGCTGGGTTCTAACCTGTTGCTTAG [GCGCGACCTAA_LTGcore_GC_RTGcore_CT] (site GCGCGACCTAA) (LTG core: GC, RTG core: CT) | 0.0605
19 | GCGCGACGGTGGGTTCTAACCTGTTGCTTAG [GCGCGACCTAA_LTGcore_GG_RTGcore_CT] (site GCGCGACCTAA) (LTG core: GG, RTG core: CT) | 0.048
20 | GCGGGACAATGGGTTCTAACCTGTTGCCTTT [GCGGGACCTAG_LTGcore_AA_RTGcore_AA] (site GCGGGACCTAG) (LTG core: AA, RTG core: AA) | 0.119
21 | GCGGGACAGTGGGTTCTAACCTGTTGCCTAG [GCGGGACCTAG_LTGcore_AG_RTGcore_CT] (site GCGGGACCTAG) (LTG core: AG, RTG core: CT) | 0.28
22 | GCGGGACCATGGGTTCTAACCTGTTGCCTAG [GCGGGACCTAG_LTGcore_CA_RTGcore_CT] (site GCGGGACCTAG) (LTG core: CA, RTG core: CT) | 0.909
23 | GCGGGACCTTGGGTTCTAACCTGTTGCCTCC [GCGGGACCTAG_LTGcore_CT_RTGcore_GG] (site GCGGGACCTAG) (LTG core: CT, RTG core: GG) | 1.24

Row | Sequence | recombinant barcode read abundance (log10)
24 | GCGGGACCTTGGGTTCTAACCTGTTGCCTCT [GCGGGACCTAG_LTGcore_CT_RTGcore_AG] (site GCGGGACCTAG) (LTG core: CT, RTG core: AG) | 0.713
25 | GCGGGACCTTGGGTTCTAACCTGTTGCCTGT [GCGGGACCTAG_LTGcore_CT_RTGcore_AC] (site GCGGGACCTAG) (LTG core: CT, RTG core: AC) | 1.21
26 | GCGGGACCTTGGGTTCTAACCTGTTGCCTTT [GCGGGACCTAG_LTGcore_CT_RTGcore_AA] (site GCGGGACCTAG) (LTG core: CT, RTG core: AA) | 0.927
27 | GCGGGACGCTGGGTTCTAACCTGTTGCCTAG [GCGGGACCTAG_LTGcore_GC_RTGcore_CT] (site GCGGGACCTAG) (LTG core: GC, RTG core: CT) | 0.137
28 | GCGGGACTATGGGTTCTAACCTGTTGCCTAG [GCGGGACCTAG_LTGcore_TA_RTGcore_CT] (site GCGGGACCTAG) (LTG core: TA, RTG core: CT) | 0.11
29 | GCGGGACTCTGGGTTCTAACCTGTTGCCTAG [GCGGGACCTAG_LTGcore_TC_RTGcore_CT] (site GCGGGACCTAG) (LTG core: TC, RTG core: CT) | 0.467
30 | GCGGGACTCTGGGTTCTAACCTGTTGCCTGA [GCGGGACCTAG_LTGcore_TC_RTGcore_TC] (site GCGGGACCTAG) (LTG core: TC, RTG core: TC) | 0.135
31 | GCGGGACTGTGGGTTCTAACCTGTTGCCTCA [GCGGGACCTAG_LTGcore_TG_RTGcore_TG] (site GCGGGACCTAG) (LTG core: TG, RTG core: TG) | 0.226
32 | GGACACCAATGGGTTCTAACCTGTTGCCTTT [GGACACCCTAG_LTGcore_AA_RTGcore_AA] (site GGACACCCTAG) (LTG core: AA, RTG core: AA) | 0.364
33 | GGACACCCTTGGGTTCTAACCTGTTGCCTGC [GGACACCCTAG_LTGcore_CT_RTGcore_GC] (site GGACACCCTAG) (LTG core: CT, RTG core: GC) | 1.55
34 | GGACACCGCTGGGTTCTAACCTGTTGCCTAG [GGACACCCTAG_LTGcore_GC_RTGcore_CT] (site GGACACCCTAG) (LTG core: GC, RTG core: CT) | 0.105
35 | GGACACCTCTGGGTTCTAACCTGTTGCCTGA [GGACACCCTAG_LTGcore_TC_RTGcore_TC] (site GGACACCCTAG) (LTG core: TC, RTG core: TC) | 0.149
36 | GGACACCTGTGGGTTCTAACCTGTTGCCTAG [GGACACCCTAG_LTGcore_TG_RTGcore_CT] (site GGACACCCTAG) (LTG core: TG, RTG core: CT) | 0.0753
37 | GGACACCTGTGGGTTCTAACCTGTTGCCTCA [GGACACCCTAG_LTGcore_TG_RTGcore_TG] (site GGACACCCTAG) (LTG core: TG, RTG core: TG) | 0.15
38 | GGACACCTTTGGGTTCTAACCTGTTGCCTAA [GGACACCCTAG_LTGcore_TT_RTGcore_TT] (site GGACACCCTAG) (LTG core: TT, RTG core: TT) | 0.175
39 | GGACACCTTTGGGTTCTAACCTGTTGCCTAG [GGACACCCTAG_LTGcore_TT_RTGcore_CT] (site GGACACCCTAG) (LTG core: TT, RTG core: CT) | 0.0765
40 | GGCTCCCATTGGGTTCTAACCTGTTGCGGAG [GGCTCCCCTCC_LTGcore_AT_RTGcore_CT] (site GGCTCCCCTCC) (LTG core: AT, RTG core: CT) | 0.157
41 | GGCTCCCCTTGGGTTCTAACCTGTTGCGGAC [GGCTCCCCTCC_LTGcore_CT_RTGcore_GT] (site GGCTCCCCTCC) (LTG core: CT, RTG core: GT) | 0.0822
42 | GGCTCCCCTTGGGTTCTAACCTGTTGCGGGA [GGCTCCCCTCC_LTGcore_CT_RTGcore_TC] (site GGCTCCCCTCC) (LTG core: CT, RTG core: TC) | 0.302
43 | GGCTCCCCTTGGGTTCTAACCTGTTGCGGGC [GGCTCCCCTCC_LTGcore_CT_RTGcore_GC] (site GGCTCCCCTCC) (LTG core: CT, RTG core: GC) | 0.112
44 | GGCTCCCGCTGGGTTCTAACCTGTTGCGGAG [GGCTCCCCTCC_LTGcore_GC_RTGcore_CT] (site GGCTCCCCTCC) (LTG core: GC, RTG core: CT) | 0.0135
45 | GGCTCCCGGTGGGTTCTAACCTGTTGCGGAG [GGCTCCCCTCC_LTGcore_GG_RTGcore_CT] (site GGCTCCCCTCC) (LTG core: GG, RTG core: CT) | 0.0853
